Assay results taken from patent US20230107642A1 (Erasca, Inc., priority 2020, published 2023).

Target: T1, K-Ras G12C (Homo sapiens, UniProt P01116, G12C)
T1 construct: This protein contained 188 amino acids in total, including an N-terminal 6-Histidine tag; made in house; host or cells: E. coli BL21
Test: CAF assay (% CAF; method in Example 7, not in this part)
Type: binding

Row | Compound | % CAF @ 10 uM, 1h (10 uM, 1 h, Table 3) | % CAF @ 10 uM, 1h (10 uM compound, 1 h incubation)
1 | C=CC(=O)N1CCN(c2nc(=O)n3c4c(c(-c5cccc6ccccc56)c(Cl)cc24)SCC3)[C@@H](C)C1 [Example 154, (R)-7-((S)-4-acryloyl-2-methylpiperazin-1-yl)-9-chloro-10-(naphthalen-1-yl)-2,3-dihydro-5H-[1,4]thiazino[2,3,4-ij]quinazolin-5-one] | 24% | 
2 | C=CC(=O)N1C[C@H](C)N(c2nc(=O)n3c4c(c(-c5ccc(F)cc5F)c(C(F)(F)F)cc24)SC[C@@H]3COCCOC)C[C@H]1C (atropisomer, axis not shown) [Example 511, (3S,10R)-7-((2S,5R)-4-acryloyl-2,5-dimethylpiperazin-1-yl)-10-(2,4-difluorophenyl)-3-((2-methoxyethoxy)methyl)-9-(trifluoromethyl)-2,3-dihydro-5H-[1,4]thiazino[2,3,4-ij]quinazolin-5-one] |  | 80.6%
3 | C=CC(=O)N1[C@H](C)CN(c2nc(=O)n3c4c(c(-c5cc(Cl)c(F)cc5F)c(C(F)(F)F)cc24)SC[C@@H]3COC)C[C@@H]1C (atropisomer, axis not shown) [Example 564, (3S,10S)-7-((3S,5R)-4-acryloyl-3,5-dimethylpiperazin-1-yl)-10-(5-chloro-2,4-difluorophenyl)-3-(methoxymethyl)-9-(trifluoromethyl)-2,3-dihydro-5H-[1,4]thiazino[2,3,4-ij]quinazolin-5-one] |  | 80.8%
4 | C=CC(=O)N1CCN(c2nc(=O)n3c4c(c(-c5cccc6cnccc56)c(Cl)cc24)SCC3)[C@@H](C)C1 [Example 86, 7-((S)-4-acryloyl-2-methylpiperazin-1-yl)-9-chloro-10-(isoquinolin-5-yl)-2,3-dihydro-5H-[1,4]thiazino[2,3,4-ij]quinazolin-5-one] | 76.1% | 
5 | C[C@H]1CN(C(=O)/C=C/C(F)F)CCN1c1nc(=O)n2c3c(c(-c4ccc(Cl)c(F)c4)c(Cl)cc13)SCC2 [Example 80, (S,E)-9-chloro-10-(4-chloro-3-fluorophenyl)-7-(4-(4,4-difluorobut-2-enoyl)-2-methylpiperazin-1-yl)-2,3-dihydro-5H-[1,4]thiazino[2,3,4-ij]quinazolin-5-one] | 93.5% | 
6 | C=CC(=O)N1[C@H](C)CN(c2nc(=O)n3c4c(c(-c5ccc(F)cc5F)c(C(F)(F)F)cc24)SC[C@@H]3CN2C[C@@H]3C[C@H]2CO3)C[C@@H]1C [Example 560, (3S)-3-(((1S,4S)-2-oxa-5-azabicyclo[2.2.1]heptan-5-yl)methyl)-7-((3S,5R)-4-acryloyl-3,5-dimethylpiperazin-1-yl)-10-(2,4-difluorophenyl)-9-(trifluoromethyl)-2,3-dihydro-5H-[1,4]thiazino[2,3,4-ij]quinazolin-5-one] |  | 95.6%
7 | C=CC(=O)N1CCN(c2nc(=O)n3c4c(c(-c5ccc(F)cc5F)c(Cl)cc24)SC[C@H]3CCCN2C[C@@H]3C[C@H]2CO3)[C@@H](C)C1 [Example 97, (3R)-3-(3-((1S,4S)-2-oxa-5-azabicyclo[2.2.1]heptan-5-yl)propyl)-7-((S)-4-acryloyl-2-methylpiperazin-1-yl)-9-chloro-10-(2,4-difluorophenyl)-2,3-dihydro-5H-[1,4]thiazino[2,3,4-ij]quinazolin-5-one] | 96.5% | 
8 | C=CC(=O)N1C2CC1CN(c1nc(=O)n3c4c(c(-c5ccc(F)cc5F)c(Cl)cc14)SCC3)C2 [Example 165, 7-(6-acryloyl-3,6-diazabicyclo[3.1.1]heptan-3-yl)-9-chloro-10-(2,4-difluorophenyl)-2,3-dihydro-5H-[1,4]thiazino[2,3,4-ij]quinazolin-5-one] | 16.9% | 
9 | C=CC(=O)N1CCN(c2nc(=O)n3c4c(c(-c5ccccc5C(F)(F)F)c(Cl)cc24)SCC3)[C@@H](C)C1 [Example 167, 7-((S)-4-acryloyl-2-methylpiperazin-1-yl)-9-chloro-10-(2-(trifluoromethyl)phenyl)-2,3-dihydro-5H-[1,4]thiazino[2,3,4-ij]quinazolin-5-one] | 69.8% | 
10 | C=CC(=O)N1C[C@H](C)N(c2nc(=O)n3c4c(c(-c5cc(Cl)c(F)cc5F)c(C(F)(F)F)cc24)SC[C@@H]3COC)C[C@H]1C [Example 492, (3S)-7-((2S,5R)-4-acryloyl-2,5-dimethylpiperazin-1-yl)-10-(5-chloro-2,4-difluorophenyl)-3-(methoxymethyl)-9-(trifluoromethyl)-2H-[1,4]thiazino[2,3,4-ij]quinazolin-5(3H)-one] |  | 63.2%
11 | C=CC(=O)N1CCN(c2nc(=O)n3c4c(c(-c5ccc(F)cc5)c(Cl)cc24)SC[C@@H](OC)C3)[C@@H](C)C1 [Example 537, (S)-8-((S)-4-acryloyl-2-methylpiperazin-1-yl)-10-chloro-11-(4-fluorophenyl)-3-methoxy-3,4-dihydro-2H,6H-[1,4]thiazepino[2,3,4-ij]quinazolin-6-one] |  | 96%
12 | C=CC(=O)N1C[C@H](C)N(c2nc(=O)n3c4c(c(-c5ccc(F)cc5F)c(C(F)(F)F)cc24)SC[C@@H]3COC)C[C@H]1C (atropisomer, axis not shown) [Example 508, (3S,10S)-7-((2S,5R)-4-acryloyl-2,5-dimethylpiperazin-1-yl)-10-(2,4-difluorophenyl)-3-(methoxymethyl)-9-(trifluoromethyl)-2,3-dihydro-5H-[1,4]thiazino[2,3,4-ij]quinazolin-5-one] |  | 92%
13 | C=CC(=O)N1C[C@H](C)N(c2nc(=O)n3c4c(c(-c5ccc(F)cc5F)c(Cl)cc24)SC[C@@H]3CN2CCn3c(nnc3C(F)(F)F)C2)C[C@H]1C [Example 468, (3S)-7-((2S,5R)-4-acryloyl-2,5-dimethylpiperazin-1-yl)-9-chloro-10-(2,4-difluorophenyl)-3-((3-(trifluoromethyl)-5,6-dihydro-[1,2,4]triazolo[4,3-a]pyrazin-7(8H)-yl)methyl)-2H-[1,4]thiazino[2,3,4-ij]quinazolin-5(3H)-one] |  | 68.6%
14 | C=CC(=O)N1C[C@H](C)N(c2nc(=O)n3c4c(c(-c5cc(Cl)c(F)cc5F)c(Cl)cc24)SC[C@@H]3CN2C[C@@H]3C[C@H]2CO3)C[C@H]1C [Example 500, (3S)-3-((1S,4S)-2-oxa-5-azabicyclo[2.2.1]heptan-5-ylmethyl)-7-((2S,5R)-4-acryloyl-2,5-dimethylpiperazin-1-yl)-9-chloro-10-(5-chloro-2,4-difluorophenyl)-2H-[1,4]thiazino[2,3,4-ij]quinazolin-5(3H)-one] |  | 50.6%

Results, then the compound that gave them:

Row | % CAF @ 10 uM, 1h (10 uM, 1 h, Table 3) | % CAF @ 10 uM, 1h (10 uM compound, 1 h incubation) | Compound
15 | 95.4% |  | C=CC(=O)N1CCN(c2nc(=O)n3c4c(c(-c5ccc(F)cc5F)c(Cl)cc24)SCCC3)[C@@H](C)C1 [Example 102, 8-((S)-4-acryloyl-2-methylpiperazin-1-yl)-10-chloro-11-(2,4-difluorophenyl)-3,4-dihydro-2H,6H-[1,4]thiazepino[2,3,4-ij]quinazolin-6-one]
16 | 85% |  | C=CC(=O)N1CCN(c2nc(=O)n3c4c(c(-c5ccc(F)cc5F)c(Cl)cc24)SCC3)C2COCC21 (stereo not drawn) [Example 134, 7-(4-acryloylhexahydro-furo[3,4-b]pyrazin-1(2H)-yl)-9-chloro-10-(2,4-difluorophenyl)-2,3-dihydro-5H-[1,4]thiazino[2,3,4-ij]quinazolin-5-one]
17 | 62.7% |  | C=CC(=O)N1CCN(c2nc(=O)n3c4c(c(-c5ccc(F)cc5F)c(Cl)cc24)SCC3)CC12CNC2=O (stereo not drawn) [Example 128, 7-(5-acryloyl-1-oxo-2,5,8-triazaspiro[3.5]nonan-8-yl)-9-chloro-10-(2,4-difluorophenyl)-2,3-dihydro-5H-[1,4]thiazino[2,3,4-ij]quinazolin-5-one]
18 | 95.9% |  | C=CC(=O)N1CCN(c2nc(=O)n3c4c(c(-c5ccc(F)cc5F)c(Cl)cc24)S(=O)(=O)CC3)[C@@H](C)C1 [Example 148]
19 |  | 25.3% | C=CC(=O)N1CCN(c2nc(=O)n3c4c(c(-c5ccc(F)cc5F)c(Cl)cc24)SC2(CC2)C3)[C@@H](C)C1 [Example 433, 7′-((S)-4-acryloyl-2-methylpiperazin-1-yl)-9′-chloro-10′-(2,4-difluorophenyl)-3′H,5′H-spiro[cyclopropane-1,2′-[1,4]thiazino[2,3,4-ij]quinazolin]-5′-one]
20 | 91.9% |  | C=CC(=O)N1CCN(c2nc(=O)n3c4c(c(-c5ccc(F)cc5F)c(C#N)cc24)SCC3)[C@@H](C)C1 [Example 132, 7-((S)-4-acryloyl-2-methylpiperazin-1-yl)-10-(2,4-difluorophenyl)-5-oxo-2,3-dihydro-5H-[1,4]thiazino[2,3,4-ij]quinazoline-9-carbonitrile]
21 | 89% |  | N#CC[C@H]1CN(c2nc(=O)n3c4c(c(-c5ccc(F)cc5F)c(Cl)cc24)SCC3)CCN1C(=O)/C=C/C(F)(F)F [Example 81, 2-((2S)-4-(9-chloro-10-(2,4-difluorophenyl)-5-oxo-2,3-dihydro-5H-[1,4]thiazino[2,3,4-ij]quinazolin-7-yl)-1-((E)-4,4,4-trifluorobut-2-enoyl)piperazin-2-yl)acetonitrile]
22 | 45.3% |  | C=CC(=O)N1C[C@H](C)N(c2nc(=O)n3c4c(c(-c5cccc6ccccc56)c(Cl)cc24)SCC3)C[C@H]1C (atropisomer, axis not shown) [Example 183, 7-((2S,5R)-4-acryloyl-2,5-dimethylpiperazin-1-yl)-9-chloro-10-(naphthalen-1-yl)-2,3-dihydro-5H-[1,4]thiazino[2,3,4-ij]quinazolin-5-one]
23 | 27.4% |  | C=CC(=O)N1CCN(c2nc(=O)n3c4c(c(-c5ccc(F)cc5F)c(Cl)cc24)SCC3)CC12CCNC2=O (stereo not drawn) [Example 116, 7-(6-acryloyl-1-oxo-2,6,9-triazaspiro[4.5]decan-9-yl)-9-chloro-10-(2,4-difluorophenyl)-2,3-dihydro-5H-[1,4]thiazino[2,3,4-ij]quinazolin-5-one]
24 | 1% |  | C=CC(=O)N1C[C@H](C#N)N(c2nc(=O)n3c4c(c(-c5ccc(F)cc5F)c(Cl)cc24)SCC3)C[C@H]1C [Example 161, (2R,5R)-4-acryloyl-1-(9-chloro-10-(2,4-difluorophenyl)-5-oxo-2,3-dihydro-5H-[1,4]thiazino[2,3,4-ij]quinazolin-7-yl)-5-methylpiperazine-2-carbonitrile]
